Laboratory results reported in patent US20110059909A1, “METHODS FOR TREATING INFLAMMATORY DISORDERS” (priority 2004, published 2011).
“Also recorded” adds a separate entry of the source.

Tests used:
[1] = test system: TNFα; experiment: TNFα expression at the lesion epicenter following SCI
[2] = test system: IL-1β; experiment: IL-1β expression at the lesion epicenter following SCI
[3] = test system: rat SCI model; experiment: BBB locomotor rating, rat SCI model; type: in vivo
Source text: Sprague-Dawley female rats (225-250 g weight) were purchased (Harlan laboratories, Durham, N.C.) for induction of SCI. All rats were given water and food pellets ad libitum and maintained in accordance with the ‘Guide for the Care and Use of Laboratory Animals’ of the US Department of Health and Human Services (National Institutes of Health, Bethesda, Md., USA). The inventors have used a clinically relevant weight-drop device for the induction of SCI in rats as described earlier (Gruner, 1992). Briefly, rats were anesthetized by intraperitoneal (i.p.) administration of ketamine (80 mg/kg) plus xylazine (10 mg/kg) followed by laminectomy at T12. While the spine was immobilized with a stereotactic device, injury (30 g/cm force) was induced by dropping a weight of 5 gm from a height of 6 cm onto an impounder gently placed on the spinal cord. Sham operated animals underwent laminectomy only. Upon recovery from anesthesia, animals were evaluated neurologically and monitored for food and water intake. However, no prophylactic antibiotics or analgesics were used in order to avoid their possible interactions with the experimental therapy of SCI.
Assessment of neurological (functional) recovery was performed by an open-field test using the 21-point Basso, Beattie, Bresnahan (BBB) locomotor rating scale (Basso et al., 1996) until Day 15 post-SCI. […]

[4] = test system: iNOS; experiment: iNOS expression at the lesion epicenter following SCI
[5] = test system: rat aortic vascular smooth muscle cells; conditions: cited from earlier work
[6] = test system: neurons; experiment: Fluorescent TUNEL / NeuN staining of spinal cord sections following SCI; type: in vivo, rat
Method: TUNEL assay was carried out using APOPTAG Fluorescein In Situ Apoptosis Detection Kit (Serological Corporation, Norcross, Ga.) according to manufacturer's protocol. For double labeling, sections were incubated with mouse anti-neuronal nuclei 1:100 (NeuN, Chemicon, USA). Sections were incubated with TRITC conjugated […] 1:100 (Sigma), mounted in mounting media and visualized by fluorescence microscopy.

[7] = test system: GFAP; experiment: GFAP expression (reactive astrogliosis) at the lesion epicenter following SCI
[8] = test system: PI-3K; experiment: PI-3 kinase activity assay; type: cell-based, rat; conditions: exogenous lipid
Method: Cells after stimulation in serum-free DMEM/F-12 were lysed with ice-cold lysis buffer containing 1% (vol/vol) NP-40,100 mM NaCl, 20 mM Tris (pH 7.4), 10 mM iodoacetamide, 10 mM NaF, 1 mM sodium orthovanadate, 1 mM […], 1 μg/ml leupeptin, 1 μg/ml antipain, 1 mg/ml aprotinin, and 1 μg/ml pepstatin A. Lysates were incubated at 4° C. for 15 min, followed by centrifugation at 13,000 g for 15 min. The supernatant was pre-cleared with protein G-Sepharose beads (Pharmacia Biotech) for 1 h at 4° C. followed by the addition of 1 μg/ml p85α monoclonal antibody. After 2 h of incubation at 4° C., protein G-Sepharose beads were added and the resulting mixture was further incubated for 1 h at 4° C. The immunoprecipitates were washed twice with lysis buffer, once with phosphate-buffered saline (PBS), once with 0.5 M LiCl and 100 mM Tris (pH 7.6), once in water, and once in kinase buffer (5 mM MgCl2, 0.25 mM EDTA, 20 mM HEPES, pH 7.4). PI-3kinase activity was determined as already described (Ward et al., 1992; Pahan et al., 1999) using a lipid mixture of 100 μl of 0.1 mg/ml PI and 0.1 mg/ml phosphatidylserine dispersed by sonication in 20 mM HEPES (pH 7.0) and 1 mM EDTA. The reaction was initiated by the addition of 20 of [γ-32P] […]

Reversal of DMS-mediated inhibition of PI-3K activation [8] | Compound | TNFα mRNA levels ([1]; 1 h post-SCI) | TNFα protein levels, immunofluorescence ([1]; post-SCI (sections extracted 1 h)) | IL-1β mRNA levels ([2]; 4 h post-SCI) | IL-1β protein levels, immunofluorescence ([2]; post-SCI (sections extracted 4 h)) | BBB score ([3]; Day 3 post-SCI, PDMP 20 mg/kg i.p. at 10 min, 24 h, 48 h, 72 h) | BBB score ([3]; Day 15 post-SCI, PDMP treatment stopped at Day 3) | iNOS mRNA (real time PCR) and protein expression ([4]; 12 h following SCI) | iNOS expression, double immunofluorescence ([4]; 24 h post-SCI) | IL-1β stimulated nitric oxide release [5] | Apoptosis of neurons (TUNEL/NeuN) ([6]; 24 h post-SCI) | Effect on neuronal survival in sham operated animals ([6]; sham operated, PDMP 20 mg/kg) | GFAP, double immunofluorescence ([7]; 24 h post-SCI) | GFAP mRNA and protein expression ([7]; PDMP 20 mg/kg post-SCI)
 | CCCCCCCCCC(=O)NC(CN1CCOCC1)C(O)c1ccccc1.Cl [PDMP, D-threo-1-Phenyl-2-decanoylamino-3-morpholino-1-propanol.HCl] | markedly inhibited | significantly suppressed | markedly inhibited | significantly suppressed | 6.9±0.2 | 13.9±0.1 | markedly suppressed | significantly reduced | increased | provided protection | no adverse effect | significantly reduced; also recorded: significantly attenuated | effectively attenuated
could not reverse | Lactosylceramide [LacCer] |  |  |  |  |  |  |  |  |  |  |  |  | 
